From patent US9738634B2, “Heterocyclic amide compound and herbicide” (SYNGENTA PARTICIPATIONS AG, priority 2013, dated 2017)

Columns and labels:
Format in all cases: in vivo
Settings in all cases: treatment dosage 320 g/ha
catchweed [1] = assay: Test Example 4: weedkilling efficacy by foliar treatment; O: catchweed
Summary of the method: (§1)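 Seeds are spot-sown into sterilized diluvial soil and covered with about 1.5 cm of soil. After 14 days' greenhouse growth at 25 to 30° C, plants are sprayed on stems and leaves with diluted emulsion at the stated g/ha rate, then scored at 3 weeks.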

common wind-grass [2] = assay: Test Example 3: weedkilling efficacy through soil treatment; J: common wind-grass
Summary of the method: (§2)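 Crop and weed responses were judged three weeks after a uniform surface spray of the water-diluted emulsion at the given g/ha rate. Seeds sat beneath about 1.5 cm of sterilized diluvial soil, and boxes stood in a greenhouse at 25 to 30° C.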

soybean [3] = assay: Test Example 4: foliar treatment, effect on crop; d: soybean
Summary of the method: as §1

redroot pigweed [4] = assay: Test Example 4: weedkilling efficacy by foliar treatment; L: redroot pigweed
Summary of the method: as §1

common wind-grass [5] = assay: Test Example 4: weedkilling efficacy by foliar treatment; J: common wind-grass
Summary of the method: as §1

redroot pigweed [6] = assay: Test Example 3: weedkilling efficacy through soil treatment; L: redroot pigweed
Summary of the method: as §2

directly sown rice [7] = assay: Test Example 4: foliar treatment, effect on crop; b: directly sown rice
Summary of the method: as §1

corn [8] = assay: Test Example 4: foliar treatment, effect on crop; c: corn
Summary of the method: as §1

birds-eye speedwell [9] = assay: Test Example 3: weedkilling efficacy through soil treatment; p: birds-eye speedwell
Summary of the method: as §2

rapeseed [10] = assay: Test Example 3: soil treatment, effect on crop; g: rapeseed
Summary of the method: as §2

Indian mallow [11] = assay: Test Example 4: weedkilling efficacy by foliar treatment; K: Indian mallow
Summary of the method: as §1

barnyard grass [12] = assay: Test Example 4: weedkilling efficacy by foliar treatment; F: barnyard grass
Summary of the method: as §1

bulrush [13] = assay: Test Example 2: weedkilling efficacy, growth period weed treatment in the submerged state; B: bulrush
Summary of the method: (§3)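 First, alluvial soil in pots is flooded to 4 cm and mixed seed is sown. Next, plants grow in a greenhouse at 25 to 30° C until the 1-2 leaf stage. Then diluted emulsion is applied onto the water surface at the given g/ha rate, and injury is assessed after 3 weeks.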

beet [14] = assay: Test Example 4: foliar treatment, effect on crop; f: beet
Summary of the method: as §1

barnyard grass [15] = assay: Test Example 3: weedkilling efficacy through soil treatment; F: barnyard grass
Summary of the method: as §2

chickweed [16] = assay: Test Example 3: weedkilling efficacy through soil treatment; N: chickweed
Summary of the method: as §2

rapeseed [17] = assay: Test Example 4: foliar treatment, effect on crop; g: rapeseed
Summary of the method: as §1

crabgrass [18] = assay: Test Example 4: weedkilling efficacy by foliar treatment; D: crabgrass
Summary of the method: as §1

bulrush [19] = assay: Test Example 1: weedkilling efficacy, preemergent weed treatment in the submerged state; B: bulrush
Summary of the method: (§4)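 Alluvial soil in Wagner pots flooded to 4 cm; barnyard grass, bulrush and oval-leafed pondweed seeds sown, then 2.5-leaf rice seedlings transplanted. Same day, emulsified compound diluted in water to set g/ha dosages and applied to water surface; greenhouse 25–30 °C, effect scored by criteria after 3 weeks.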

soybean [20] = assay: Test Example 3: soil treatment, effect on crop; d: soybean
Summary of the method: as §2

wild oat [21] = assay: Test Example 4: weedkilling efficacy by foliar treatment; G: wild oat
Summary of the method: as §1

wheat [22] = assay: Test Example 4: foliar treatment, effect on crop; e: wheat
Summary of the method: as §1

Italian ryegrass [23] = assay: Test Example 3: weedkilling efficacy through soil treatment; I: Italian ryegrass
Summary of the method: as §2

black-grass [24] = assay: Test Example 4: weedkilling efficacy by foliar treatment; H: black-grass
Summary of the method: as §1

fig-leafed goosefoot = assay: Test Example 3: weedkilling efficacy through soil treatment; M: fig-leafed goosefoot
Summary of the method: as §2

black-grass [25] = assay: Test Example 3: weedkilling efficacy through soil treatment; H: black-grass
Summary of the method: as §2

Indian mallow [26] = assay: Test Example 3: weedkilling efficacy through soil treatment; K: Indian mallow
Summary of the method: as §2

wheat [27] = assay: Test Example 3: soil treatment, effect on crop; e: wheat
Summary of the method: as §2

barnyard grass [28] = assay: Test Example 1: weedkilling efficacy, preemergent weed treatment in the submerged state; A: barnyard grass
Summary of the method: as §4

chickweed [29] = assay: Test Example 4: weedkilling efficacy by foliar treatment; N: chickweed
Summary of the method: as §1

birds-eye speedwell [30] = assay: Test Example 4: weedkilling efficacy by foliar treatment; p: birds-eye speedwell
Summary of the method: as §1

directly sown rice [31] = assay: Test Example 3: soil treatment, effect on crop; b: directly sown rice
Summary of the method: as §2

green foxtail [32] = assay: Test Example 3: weedkilling efficacy through soil treatment; E: green foxtail
Summary of the method: as §2

transplanted rice = assay: Test Example 1: preemergent weed treatment in the submerged state, effect on crop; a: transplanted rice
Summary of the method: as §4

oval-leafed pondweed [33] = assay: Test Example 1: weedkilling efficacy, preemergent weed treatment in the submerged state; C: oval-leafed pondweed
Summary of the method: as §4

beet [34] = assay: Test Example 3: soil treatment, effect on crop; f: beet
Summary of the method: as §2

green foxtail [35] = assay: Test Example 4: weedkilling efficacy by foliar treatment; E: green foxtail
Summary of the method: as §1

catchweed [36] = assay: Test Example 3: weedkilling efficacy through soil treatment; O: catchweed
Summary of the method: as §2

barnyard grass [37] = assay: Test Example 2: weedkilling efficacy, growth period weed treatment in the submerged state; A: barnyard grass
Summary of the method: as §3

corn [38] = assay: Test Example 3: soil treatment, effect on crop; c: corn
Summary of the method: as §2

oval-leafed pondweed [39] = assay: Test Example 2: weedkilling efficacy, growth period weed treatment in the submerged state; C: oval-leafed pondweed
Summary of the method: as §3

wild oat [40] = assay: Test Example 3: weedkilling efficacy through soil treatment; G: wild oat
Summary of the method: as §2

Italian ryegrass [41] = assay: Test Example 4: weedkilling efficacy by foliar treatment; I: Italian ryegrass
Summary of the method: as §1

crabgrass [42] = assay: Test Example 3: weedkilling efficacy through soil treatment; D: crabgrass
Summary of the method: as §2

## COc1cc(Cl)nc(NC(=O)C(C)(C)N2COC(C)=C(c3ccccc3)C2=O)c1 [B-2-47]
Catchweed [1]
  O (catchweed) weedkilling efficacy grade: 3 (weed kill ratio 40% or more, less than 70%)
Common wind-grass [2]
  J (common wind-grass) weedkilling efficacy grade: 5 (weed kill ratio 90% or more, (practically complete withering))
Soybean [3]
  d (soybean) effect on crop grade: 0 (weed kill ratio 5% or less (practically no effect))
Redroot pigweed [4]
  L (redroot pigweed) weedkilling efficacy grade: 0 (weed kill ratio 5% or less (practically no effect))
Common wind-grass [5]
  J (common wind-grass) weedkilling efficacy grade: 4 (weed kill ratio 70% or more, less than 90%)
Redroot pigweed [6]
  L (redroot pigweed) weedkilling efficacy grade: 0 (weed kill ratio 5% or less (practically no effect))
Directly sown rice [7]
  b (directly sown rice) effect on crop grade: 0 (weed kill ratio 5% or less (practically no effect))
Corn [8]
  c (corn) effect on crop grade: 0 (weed kill ratio 5% or less (practically no effect))
birds-eye speedwell [9]
  P (birds-eye speedwell) weedkilling efficacy grade: 5 (weed kill ratio 90% or more, (practically complete withering))
Rapeseed [10]
  g (rapeseed) effect on crop grade: 3 (weed kill ratio 40% or more, less than 70%)
Indian mallow [11]
  K (Indian mallow) weedkilling efficacy grade: 0 (weed kill ratio 5% or less (practically no effect))
Barnyard grass [12]
  F (barnyard grass) weedkilling efficacy grade: 1 (weed kill ratio 5% or more, less than 20%)
Bulrush [13]
  B (bulrush) weedkilling efficacy grade: 5 (weed kill ratio 90% or more, (practically complete withering))
Beet [14]
  f (beet) effect on crop grade: 3 (weed kill ratio 40% or more, less than 70%)
Barnyard grass [15]
  F (barnyard grass) weedkilling efficacy grade: 4 (weed kill ratio 70% or more, less than 90%)
Chickweed [16]
  N (chickweed) weedkilling efficacy grade: 3 (weed kill ratio 40% or more, less than 70%)
Rapeseed [17]
  g (rapeseed) effect on crop grade: 3 (weed kill ratio 40% or more, less than 70%)
Crabgrass [18]
  D (crabgrass) weedkilling efficacy grade: 3 (weed kill ratio 40% or more, less than 70%)
Bulrush [19]
  B (bulrush) weedkilling efficacy grade: 5 (weed kill ratio 90% or more, (practically complete withering))
Soybean [20]
  d (soybean) effect on crop grade: 0 (weed kill ratio 5% or less (practically no effect))
Wild oat [21]
  G (wild oat) weedkilling efficacy grade: 2 (weed kill ratio 20% or more, less than 40%)
Wheat [22]
  e (wheat) effect on crop grade: 0 (weed kill ratio 5% or less (practically no effect))
Italian ryegrass [23]
  I (Italian ryegrass) weedkilling efficacy grade: 5 (weed kill ratio 90% or more, (practically complete withering))
black-grass [24]
  H (black-grass) weedkilling efficacy grade: 2 (weed kill ratio 20% or more, less than 40%)
fig-leafed goosefoot
  M (fig-leafed goosefoot) weedkilling efficacy grade: 2 (weed kill ratio 20% or more, less than 40%)
black-grass [25]
  H (black-grass) weedkilling efficacy grade: 5 (weed kill ratio 90% or more, (practically complete withering))
Indian mallow [26]
  K (Indian mallow) weedkilling efficacy grade: 0 (weed kill ratio 5% or less (practically no effect))
Wheat [27]
  e (wheat) effect on crop grade: 0 (weed kill ratio 5% or less (practically no effect))
Barnyard grass [28]
  A (barnyard grass) weedkilling efficacy grade: 5 (weed kill ratio 90% or more, (practically complete withering))
Chickweed [29]
  N (chickweed) weedkilling efficacy grade: 2 (weed kill ratio 20% or more, less than 40%)
birds-eye speedwell [30]
  P (birds-eye speedwell) weedkilling efficacy grade: 4 (weed kill ratio 70% or more, less than 90%)
Directly sown rice [31]
  b (directly sown rice) effect on crop grade: 3 (weed kill ratio 40% or more, less than 70%)
Green foxtail [32]
  E (green foxtail) weedkilling efficacy grade: 5 (weed kill ratio 90% or more, (practically complete withering))
Transplanted rice
  a (transplanted rice) effect on crop grade: 1 (weed kill ratio 5% or more, less than 20%)
oval-leafed pondweed [33]
  C (oval-leafed pondweed) weedkilling efficacy grade: 5 (weed kill ratio 90% or more, (practically complete withering))
Beet [34]
  f (beet) effect on crop grade: 2 (weed kill ratio 20% or more, less than 40%)
Green foxtail [35]
  E (green foxtail) weedkilling efficacy grade: 4 (weed kill ratio 70% or more, less than 90%)
Catchweed [36]
  O (catchweed) weedkilling efficacy grade: 4 (weed kill ratio 70% or more, less than 90%)
Barnyard grass [37]
  A (barnyard grass) weedkilling efficacy grade: 5 (weed kill ratio 90% or more, (practically complete withering))
Corn [38]
  c (corn) effect on crop grade: 0 (weed kill ratio 5% or less (practically no effect))
oval-leafed pondweed [39]
  C (oval-leafed pondweed) weedkilling efficacy grade: 5 (weed kill ratio 90% or more, (practically complete withering))
Wild oat [40]
  G (wild oat) weedkilling efficacy grade: 2 (weed kill ratio 20% or more, less than 40%)
Italian ryegrass [41]
  I (Italian ryegrass) weedkilling efficacy grade: 2 (weed kill ratio 20% or more, less than 40%)
Crabgrass [42]
  D (crabgrass) weedkilling efficacy grade: 4 (weed kill ratio 70% or more, less than 90%)
